Literature values as cited in patent US20250261683A1, “ORAL COMPOSITION COMPRISING ENCAPSULATED PH ADJUSTING AGENT” (NICOVENTURES TRADING LIMITED, priority 2022, published 2025).

Tests used:
[1] = descriptive statement
[2] = descriptive statement; isomerizes to trans-bixin

solubility in water [1] | chemical stability when isolated [2] | solubility in fats and alcohols [1] | SMILES
water-soluble | – | – | CC(/C=C/C=C(C)/C=C/C(=O)O)=C\C=C\C=C(C)\C=C\C=C(C)\C=C\C(=O)O (stereo in doubt) [norbixin, (2E,4E,6E,8E,10E,12E,14E,16E,18E)-4,8,13,17-tetramethylicosa-2,4,6,8,10,12, 14,16, 18-nonaenedioic acid]
insoluble | chemically unstable | soluble | COC(=O)/C=C/C(C)=C\C=C\C(C)=C\C=C\C=C(C)\C=C\C=C(C)\C=C\C(=O)O [bixin, (2E,4E,6E,8E,10E,12E,14E,16Z,18E)-20-methoxy-4,8,13,17-tetramethyl-20-oxoicosa-2,4,6,8,10,12,14,16,18-nonaenoic acid]
